The values that follow come from US20240215584A1, “ARTICLE HAVING ANTIVIRAL PROPERTIES, ARTICLE HAVING ANTIMICROBIAL PROPERTIES, AND ARTICLE HAVING ANTIFUNGAL PROPERTIES” (NATIONAL INSTITUTE OF ADVANCED INDUSTRIAL SCIENCE AND …, priority 2021, published 2024).

Values after ≈ are worked out from the molar mass of the structure shown. Read-outs that look alike come from different tables or passages of the source.

Data set [1] deals with methicillin-sensitive Staphylococcus aureus 209P. The data set can be described thus: Minimum inhibitory concentration on bacteria. As to conditions: 20 h, read-out: minimum inhibitory concentration (MIC).
Procedure: (§1) First, 100 μL per hole of a 96-hole test plate was prepared using a Mueller Hinton medium (CAMHB) (and blood added as needed) supplemented with 20 mg/L of Ca^2+ and 10 mg/L of Mg^2+ to give a 2-fold dilution series. […] Each bacterium was cultured in CAMHB (blood added as needed) and added to each of the holes of the test plate at approximately 10000 CFU/mL. The cultures were cultivated at 37° C. for 20 hours, and growth of the bacteria was visually confirmed, and the lowest concentration without growth of the bacteria was defined as the minimum inhibitory concentration (MIC: Minimum Inhibitory Concentration).
(§2) As the bacteria, methicillin-sensitive Staphylococcus aureus 209P, methicillin-resistant Staphylococcus aureus N3115, methicillin-resistant Staphylococcus aureus OM584, vancomycin moderate resistant Staphylococcus aureus Mu50, Pseudomonas aeruginosa wild strain PAO1, Pseudomonas aeruginosa resistance gene quadruple disruption strain YM64, Fecaris ATCC29212, Vancomycin-resistant Fecaris ATCC51299, and Vancomycin-resistant Fecaris NCTC12201 were used.
The subject of data set [2] is methicillin-resistant Staphylococcus aureus N3115. Nature of the data set: Minimum inhibitory concentration on bacteria. To be noted: 20 h, read-out: minimum inhibitory concentration (MIC).
Procedure: as §1, §2
In data set [3] the test system is methicillin-resistant Staphylococcus aureus OM584. The data set can be described thus: Minimum inhibitory concentration on bacteria. To be noted: 20 h, read-out: minimum inhibitory concentration (MIC).
Procedure: (§3) First, a method for measuring the minimum inhibitory concentration on the bacteria will be described. First, 100 μL per hole of a 96-hole test plate was prepared using a Mueller Hinton medium (CAMHB) (and blood added as needed) supplemented with 20 mg/L of Ca^2+ and 10 mg/L of Mg^2+ to give a 2-fold dilution series. […] Each bacterium was cultured in CAMHB (blood added as needed) and added to each of the holes of the test plate at approximately 10000 CFU/mL. The cultures were cultivated at 37° C. for 20 hours, and growth of the bacteria was visually confirmed, and the lowest concentration without growth of the bacteria was defined as the minimum inhibitory concentration (MIC: Minimum Inhibitory Concentration).
as §2
(§4) Minimum inhibitory concentrations (MIC) were measured against drug-sensitive bacteria and drug-resistant bacteria.
Data set [4] has as its system vancomycin moderate resistant Staphylococcus aureus Mu50. Nature of the data set: Minimum inhibitory concentration on bacteria. As to conditions: 20 h, read-out: minimum inhibitory concentration (MIC).
Procedure: as §3, §2, §4
The subject of data set [5] is Pseudomonas aeruginosa wild strain PAO1. The data set can be described thus: Minimum inhibitory concentration on bacteria. To be noted: PAO1, 20 h, read-out: minimum inhibitory concentration (MIC).
For the next data set, the system named is Fecaris ATCC29212. The data set can be described thus: Minimum inhibitory concentration on bacteria. As to conditions: 20 h, read-out: minimum inhibitory concentration (MIC).
Data set [6] deals with Vancomycin-resistant Fecaris ATCC51299. Nature of the data set: Minimum inhibitory concentration on bacteria. As to conditions: 20 h, read-out: minimum inhibitory concentration (MIC).
Procedure: as §3, §2, §4
Data set [7] concerns Vancomycin-resistant Fecaris NCTC12201. The data set can be described thus: Minimum inhibitory concentration on bacteria. To be noted: 20 h, read-out: minimum inhibitory concentration (MIC).
Procedure: as §1, §2
The nature of data set [8]: Residual amount on SUS substrate after ultrasonic cleaning in water. It is filed as physicochemical. To be noted: 125 μg/cm^2 applied on SUS substrate. The method, then: First, chlorhexidine was dissolved in acetone so as to be 1 mg/mL. […] Chlorhexidine gluconate was dissolved in acetone so as to be 1 mg/mL. […] Subsequently, the concentration of chlorhexidine and the concentration of chlorhexidine gluconate eluted in water were measured by UV-Vis (colorimetric method), and an amount of chlorhexidine and an amount of chlorhexidine gluconate remaining on the substrate were back-calculated from the concentration.

In data set [9] the test system is sheep defibrillated blood (red blood cells). To be noted: 30 min, pH 7.4.
Procedure: 25 μL of sheep defibrillated blood, a Tyrode solution (NaCl 137 mM, KCl 2.7 mM, CaCl2) 1.0 mM, HEPES 10 mM (pH7.4)), and chlorhexidine gluconate or chlorhexidine solution were mixed. A mixture of 25 μL of sheep defibrillated blood and 975 μL of a Tyrode solution was used as a control, and a mixture of 25 μL of sheep defibrillated blood and 975 μL of purified water was used as a complete hemolysis. The mixtures were left standing at 37° C. for 30 minutes. Thereafter, the mixed liquid is centrifuged, and the supernatant is collected. Absorbance at 545 nm was measured. A hemolysis rate was calculated according to the following formula.
Data set [10] is described as follows: Calcein efflux rate, viral composition artificial membrane (liposomes). As to conditions: for Calcein Efflux Rate (%) Virus Composition Artificial Membrane: 30° C., 30 minutes.
Data set [11] can be described thus: Calcein efflux rate, bacterial composition artificial membrane (liposomes). As to conditions: for Calcein Efflux Rate (%) Bacterial Composition Artificial Membrane: 30° C., 30 minutes.
A further data set has as its system Candida ATCC12201. Nature of the data set: Minimum inhibitory concentration on fungi. To be noted: Candida ATCC12201, RPMI1640, 37 °C, 48 hours. Type of data set: cell-based.
[12] abbreviates: 2 minutes ultrasonic cleaning in 60 ml of water at 25° C.
Where [13] appears, read: 10 minutes ultrasonic cleaning in 60 ml of water at 25° C.

Procedure for Candida ATCC12201: The bacteria were cultured in the RPMI1640 and added to each of the holes of the test plate at approximately 200 CFU/mL. The cultures were cultivated at 37 °C for 48 hours, and the growth of the bacteria was visually confirmed, and the minimum concentration without the growth of the bacteria was referred as MIC. Candida ATCC12201 was used as the fungi. […] The minimum inhibitory concentration (MIC) was measured against Candida.
Procedure for Fecaris ATCC29212: as §3, §2, §4

Regarding `CCn1cc(C(=O)O)c(=O)c2cc(F)c(N3CCNCC3)cc21` [Norfloxacin, norfloxacin], the MIC is 2 µg/mL (≈ 6.26 µM) in data set [1]; 4 µg/mL (≈ 12.5 µM) in [2]; ≥ 64 µg/mL in data set [3]; ≥ 64 µg/mL in data set [4]; 2 µg/mL (≈ 6.26 µM) in data set [5]; 16 µg/mL (≈ 50.1 µM) in the data set on Fecaris ATCC29212. Also, the results for the MIC in data set [6] and in [7] were 8 µg/mL (≈ 25.1 µM) and 16 µg/mL (≈ 50.1 µM), respectively.
For `[H]/N=C(\N/C(=N/[H])NCCCCCCNC(=N)NC(=N)Nc1ccc(Cl)cc1)Nc1ccc(Cl)cc1` [chlorhexidine gluconate], the “residual amount on substrate” value is 12.7 μg/cm^2 in data set [8] (setting [12]) and “could not be calculated” in [8] (setting [13]). The hemolytic activity in data set [9] (0.05 %) was found to be 9.3%; in [9] (0.1 %), 75.8%.
As for `[H]/N=C(\N/C(=N/[H])NCCCCCCNC(=N)NC(=N)Nc1ccc(Cl)cc1)Nc1ccc(Cl)cc1` [chlorhexidine], the results for the “residual amount on substrate” value in data set [8] (setting [12]) and in data set [8] (setting [13]) were 45.4 μg/cm^2 and 43.0 μg/cm^2, respectively. Moreover, the “Calcein Efflux Rate (%) Virus Composition Artificial Membrane” value in data set [10] (1 μM (0.51 μg/mL)) was 6.5%; in [10] (2 μM (1.01 μg/mL)), 15.9%; in data set [10] (4 μM (2.02 μg/mL)), 39.8%; in [10] (8 μM (4.04 μg/mL)), 68.5%; in data set [10] (16 μM (8.09 μg/mL)), 85.7%; in data set [10] (32 μM (16.17 μg/mL)), 91.6%. The “Calcein Efflux Rate (%) Virus Composition Artificial Membrane” value was 108.3% in data set [10] (64 μM (32.35 μg/mL)) and 120.9% in [10] (128 μM (64.70 μg/mL)). The “concentration at which calcein was still confirmed to elute” value in data set [10] (virus composition artificial membrane) was 0.51 µg/mL. Further, the “Calcein Efflux Rate (%) Bacterial Composition Artificial Membrane” value in data set [11] (1 μM (0.51 μg/mL)) is recorded as −2.7%; in data set [11] (2 μM (1.01 μg/mL)), 2.8%; in data set [11] (4 μM (2.02 μg/mL)), 11.5%; in [11] (8 μM (4.04 μg/mL)), 54.0%; in data set [11] (16 μM (8.09 μg/mL)), 91.9%; in data set [11] (32 μM (16.17 μg/mL)) it was 95.1%. In addition, the “Calcein Efflux Rate (%) Bacterial Composition Artificial Membrane” value is on record as 92.9% in [11] (64 μM (32.35 μg/mL)) and 104.5% in data set [11] (128 μM (64.70 μg/mL)). Besides, the “concentration at which calcein was still found to elute” value in [11] (bacterial composition artificial membrane) is 1.01 µg/mL. Moreover, the MIC with Candida ATCC12201 is 2 µg/mL (≈ 3.96 µM); in [1], 0.5 µg/mL (≈ 0.989 µM); in data set [2] it was 1 µg/mL (≈ 1.98 µM); in [3] it was 4 µg/mL (≈ 7.91 µM); in data set [4], 2 µg/mL (≈ 3.96 µM); in data set [5], 16 µg/mL (≈ 31.7 µM). Moreover, the MIC came out at 2 µg/mL (≈ 3.96 µM) in the data set on Fecaris ATCC29212, 4 µg/mL (≈ 7.91 µM) in data set [6] and 4 µg/mL (≈ 7.91 µM) in [7]. Also, the values for the hemolytic activity in data set [9] (0.028 %) and in [9] (0.056 %) were 11.7% and 30.2%, respectively.
As for `OC(Cn1cncn1)(Cn1cncn1)c1ccc(F)cc1F` [fluconazole], the MIC against Candida ATCC12201 amounted to 0.25 µg/mL (≈ 0.816 µM).
